From ChEMBL document CHEMBL6078640, “Trivalent oleanolic acid-glucose conjugates: Synthesis and efficacy against Influenza A virus” (Eur J Med Chem, 2024)
pIC50: −log10 of the molar value.

Assays:
MDCK = experiment: Cytotoxicity against dog MDCK cells assessed as reduction in cell viability at 100 uM incubated for 40 hrs by celltiter-glo assay; type: toxicity, cell-based, Canis lupus familiaris
Influenza A virus [1] = experiment: Antiviral activity against influenza A virus A/WSN/33(H1N1) infected in MDCK cells assessed as inhibition of viral-induced cytopathic effect pretreated with cells followed by viral infection and measured after 40 hrs by fluorescence based microplate reader analysis; type: functional, organism-based
[2] = Cytotoxicity against dog MDCK cells assessed as reduction in cell viability incubated for 40 hrs by celltiter-glo assay; type: toxicity, cell-based, Canis lupus familiaris
[3] = Selectivity index, ratio of CC50 for dog MDCK cells to IC50 for influenza A virus A/WSN/33(H1N1) infected in MDCK cells; type: toxicity, cell-based; conditions: read-out: Selectivity Index
Influenza A virus [4] = experiment: Antiviral activity against Influenza A virus H1N1 infected in MDCK cells assessed as inhibition of viral growth at 100 uM relative to control; type: functional

Structure (SMILES)	Activity (MDCK)	pIC50 (Influenza A virus [1])	CC50 at 40 h [2]	selectivity ratio [3]	inhibition at 100 µM (Influenza A virus [4])
CC1(C)CC[C@]2(C(=O)NCc3cn([C@@H]4O[C@H](CO)[C@@H](O)[C@H](O)[C@H]4O)nn3)CC[C@]3(C)C(=CC[C@@H]4[C@@]5(C)CC[C@H](OC(=O)NCCCc6cn(CC(CO)(Cn7cc(CCCNC(=O)O[C@H]8CC[C@]9(C)[C@H]%10CC=C%11[C@@H]%12CC(C)(C)CC[C@]%12(C(=O)NCc%12cn([C@@H]%13O[C@H](CO)[C@@H](O)[C@H](O)[C@H]%13O)nn%12)CC[C@@]%11(C)[C@]%10(C)CC[C@H]9C8(C)C)nn7)Cn7cc(CCCNC(=O)O[C@H]8CC[C@]9(C)[C@H]%10CC=C%11[C@@H]%12CC(C)(C)CC[C@]%12(C(=O)NCc%12cn([C@@H]%13O[C@H](CO)[C@@H](O)[C@H](O)[C@H]%13O)nn%12)CC[C@@]%11(C)[C@]%10(C)CC[C@H]9C8(C)C)nn7)nn6)C(C)(C)[C@@H]5CC[C@]43C)[C@@H]2C1	Non-toxic	5.41	> 100 µM	> 25.5	> 75%
CC(=O)OC[C@H]1O[C@@H](n2cc(CNC(=O)[C@]34CCC(C)(C)C[C@H]3C3=CC[C@@H]5[C@@]6(C)CC[C@H](OC(=O)NCc7cn(CC(CO)(Cn8cc(CNC(=O)O[C@H]9CC[C@]%10(C)[C@H]%11CC=C%12[C@@H]%13CC(C)(C)CC[C@]%13(C(=O)NCc%13cn([C@@H]%14O[C@H](COC(C)=O)[C@@H](OC(C)=O)[C@H](OC(C)=O)[C@H]%14OC(C)=O)nn%13)CC[C@@]%12(C)[C@]%11(C)CC[C@H]%10C9(C)C)nn8)Cn8cc(CNC(=O)O[C@H]9CC[C@]%10(C)[C@H]%11CC=C%12[C@@H]%13CC(C)(C)CC[C@]%13(C(=O)NCc%13cn([C@@H]%14O[C@H](COC(C)=O)[C@@H](OC(C)=O)[C@H](OC(C)=O)[C@H]%14OC(C)=O)nn%13)CC[C@@]%12(C)[C@]%11(C)CC[C@H]%10C9(C)C)nn8)nn7)C(C)(C)[C@@H]6CC[C@@]5(C)[C@]3(C)CC4)nn2)[C@H](OC(C)=O)[C@@H](OC(C)=O)[C@@H]1OC(C)=O	Non-toxic	4.15	> 100 µM	> 1.42	> 75%
CC1(C)CC[C@]2(C(=O)NCc3cn([C@@H]4O[C@H](CO)[C@@H](O)[C@H](O)[C@H]4O)nn3)CC[C@]3(C)C(=CC[C@@H]4[C@@]5(C)CC[C@H](OC(=O)NCCCc6cn(Cc7cc(Cn8cc(CCCNC(=O)O[C@H]9CC[C@]%10(C)[C@H]%11CC=C%12[C@@H]%13CC(C)(C)CC[C@]%13(C(=O)NCc%13cn([C@@H]%14O[C@H](CO)[C@@H](O)[C@H](O)[C@H]%14O)nn%13)CC[C@@]%12(C)[C@]%11(C)CC[C@H]%10C9(C)C)nn8)cc(Cn8cc(CCCNC(=O)O[C@H]9CC[C@]%10(C)[C@H]%11CC=C%12[C@@H]%13CC(C)(C)CC[C@]%13(C(=O)NCc%13cn([C@@H]%14O[C@H](CO)[C@@H](O)[C@H](O)[C@H]%14O)nn%13)CC[C@@]%12(C)[C@]%11(C)CC[C@H]%10C9(C)C)nn8)c7)nn6)C(C)(C)[C@@H]5CC[C@]43C)[C@@H]2C1	Non-toxic	4.36	> 100 µM	> 2.28	> 75%
CC(=O)OC[C@H]1O[C@@H](n2cc(CNC(=O)[C@]34CCC(C)(C)C[C@H]3C3=CC[C@@H]5[C@@]6(C)CC[C@H](OC(=O)NCCCc7cn(CC(CO)(Cn8cc(CCCNC(=O)O[C@H]9CC[C@]%10(C)[C@H]%11CC=C%12[C@@H]%13CC(C)(C)CC[C@]%13(C(=O)NCc%13cn([C@@H]%14O[C@H](COC(C)=O)[C@@H](OC(C)=O)[C@H](OC(C)=O)[C@H]%14OC(C)=O)nn%13)CC[C@@]%12(C)[C@]%11(C)CC[C@H]%10C9(C)C)nn8)Cn8cc(CCCNC(=O)O[C@H]9CC[C@]%10(C)[C@H]%11CC=C%12[C@@H]%13CC(C)(C)CC[C@]%13(C(=O)NCc%13cn([C@@H]%14O[C@H](COC(C)=O)[C@@H](OC(C)=O)[C@H](OC(C)=O)[C@H]%14OC(C)=O)nn%13)CC[C@@]%12(C)[C@]%11(C)CC[C@H]%10C9(C)C)nn8)nn7)C(C)(C)[C@@H]6CC[C@@]5(C)[C@]3(C)CC4)nn2)[C@H](OC(C)=O)[C@@H](OC(C)=O)[C@@H]1OC(C)=O	Non-toxic	5.34	> 100 µM	> 21.7	> 75%
CC(=O)OC[C@H]1O[C@@H](n2cc(CNC(=O)[C@]34CCC(C)(C)C[C@H]3C3=CC[C@@H]5[C@@]6(C)CC[C@H](OC(=O)NCc7cn(Cc8cc(Cn9cc(CNC(=O)O[C@H]%10CC[C@]%11(C)[C@H]%12CC=C%13[C@@H]%14CC(C)(C)CC[C@]%14(C(=O)NCc%14cn([C@@H]%15O[C@H](COC(C)=O)[C@@H](OC(C)=O)[C@H](OC(C)=O)[C@H]%15OC(C)=O)nn%14)CC[C@@]%13(C)[C@]%12(C)CC[C@H]%11C%10(C)C)nn9)cc(Cn9cc(CNC(=O)O[C@H]%10CC[C@]%11(C)[C@H]%12CC=C%13[C@@H]%14CC(C)(C)CC[C@]%14(C(=O)NCc%14cn([C@@H]%15O[C@H](COC(C)=O)[C@@H](OC(C)=O)[C@H](OC(C)=O)[C@H]%15OC(C)=O)nn%14)CC[C@@]%13(C)[C@]%12(C)CC[C@H]%11C%10(C)C)nn9)c8)nn7)C(C)(C)[C@@H]6CC[C@@]5(C)[C@]3(C)CC4)nn2)[C@H](OC(C)=O)[C@@H](OC(C)=O)[C@@H]1OC(C)=O	Non-toxic	6.17	> 100 µM	> 147	> 75%
CC1(C)CC[C@]2(C(=O)NCc3cn([C@@H]4O[C@H](CO)[C@@H](O)[C@H](O)[C@H]4O)nn3)CC[C@]3(C)C(=CC[C@@H]4[C@@]5(C)CC[C@H](OC(=O)NCCc6cn(Cc7cc(Cn8cc(CCNC(=O)O[C@H]9CC[C@]%10(C)[C@H]%11CC=C%12[C@@H]%13CC(C)(C)CC[C@]%13(C(=O)NCc%13cn([C@@H]%14O[C@H](CO)[C@@H](O)[C@H](O)[C@H]%14O)nn%13)CC[C@@]%12(C)[C@]%11(C)CC[C@H]%10C9(C)C)nn8)cc(Cn8cc(CCNC(=O)O[C@H]9CC[C@]%10(C)[C@H]%11CC=C%12[C@@H]%13CC(C)(C)CC[C@]%13(C(=O)NCc%13cn([C@@H]%14O[C@H](CO)[C@@H](O)[C@H](O)[C@H]%14O)nn%13)CC[C@@]%12(C)[C@]%11(C)CC[C@H]%10C9(C)C)nn8)c7)nn6)C(C)(C)[C@@H]5CC[C@]43C)[C@@H]2C1	Non-toxic	4.70	> 100 µM	> 4.97	> 75%
CC1(C)CC[C@]2(C(=O)NCc3cn([C@@H]4O[C@H](CO)[C@@H](O)[C@H](O)[C@H]4O)nn3)CC[C@]3(C)C(=CC[C@@H]4[C@@]5(C)CC[C@H](OC(=O)NCCCCCc6cn(Cc7cc(Cn8cc(CCCCCNC(=O)O[C@H]9CC[C@]%10(C)[C@H]%11CC=C%12[C@@H]%13CC(C)(C)CC[C@]%13(C(=O)NCc%13cn([C@@H]%14O[C@H](CO)[C@@H](O)[C@H](O)[C@H]%14O)nn%13)CC[C@@]%12(C)[C@]%11(C)CC[C@H]%10C9(C)C)nn8)cc(Cn8cc(CCCCCNC(=O)O[C@H]9CC[C@]%10(C)[C@H]%11CC=C%12[C@@H]%13CC(C)(C)CC[C@]%13(C(=O)NCc%13cn([C@@H]%14O[C@H](CO)[C@@H](O)[C@H](O)[C@H]%14O)nn%13)CC[C@@]%12(C)[C@]%11(C)CC[C@H]%10C9(C)C)nn8)c7)nn6)C(C)(C)[C@@H]5CC[C@]43C)[C@@H]2C1	Non-toxic	4.14	> 100 µM	> 1.37	> 75%
CC1(C)CC[C@]2(C(=O)NCc3cn([C@@H]4O[C@H](CO)[C@@H](O)[C@H](O)[C@H]4O)nn3)CC[C@]3(C)C(=CC[C@@H]4[C@@]5(C)CC[C@H](OC(=O)NCCCCCc6cn(CC(CO)(Cn7cc(CCCCCNC(=O)O[C@H]8CC[C@]9(C)[C@H]%10CC=C%11[C@@H]%12CC(C)(C)CC[C@]%12(C(=O)NCc%12cn([C@@H]%13O[C@H](CO)[C@@H](O)[C@H](O)[C@H]%13O)nn%12)CC[C@@]%11(C)[C@]%10(C)CC[C@H]9C8(C)C)nn7)Cn7cc(CCCCCNC(=O)O[C@H]8CC[C@]9(C)[C@H]%10CC=C%11[C@@H]%12CC(C)(C)CC[C@]%12(C(=O)NCc%12cn([C@@H]%13O[C@H](CO)[C@@H](O)[C@H](O)[C@H]%13O)nn%12)CC[C@@]%11(C)[C@]%10(C)CC[C@H]9C8(C)C)nn7)nn6)C(C)(C)[C@@H]5CC[C@]43C)[C@@H]2C1	Non-toxic	5.22	> 100 µM	> 16.7	> 75%
CC1(C)CC[C@]2(C(=O)NCc3cn([C@@H]4O[C@H](CO)[C@@H](O)[C@H](O)[C@H]4O)nn3)CC[C@]3(C)C(=CC[C@@H]4[C@@]5(C)CC[C@H](OC(=O)NCCc6cn(CC(CO)(Cn7cc(CCNC(=O)O[C@H]8CC[C@]9(C)[C@H]%10CC=C%11[C@@H]%12CC(C)(C)CC[C@]%12(C(=O)NCc%12cn([C@@H]%13O[C@H](CO)[C@@H](O)[C@H](O)[C@H]%13O)nn%12)CC[C@@]%11(C)[C@]%10(C)CC[C@H]9C8(C)C)nn7)Cn7cc(CCNC(=O)O[C@H]8CC[C@]9(C)[C@H]%10CC=C%11[C@@H]%12CC(C)(C)CC[C@]%12(C(=O)NCc%12cn([C@@H]%13O[C@H](CO)[C@@H](O)[C@H](O)[C@H]%13O)nn%12)CC[C@@]%11(C)[C@]%10(C)CC[C@H]9C8(C)C)nn7)nn6)C(C)(C)[C@@H]5CC[C@]43C)[C@@H]2C1	Non-toxic	5.47	> 100 µM	> 29.5	
CCOC(=O)C1=C[C@@H](OC(CC)CC)[C@H](NC(C)=O)[C@@H](N)C1.O=P(O)(O)O [OSELTAMIVIR PHOSPHATE]	Non-toxic	5.26	> 100 µM	> 18.3	
